# According to US20080249064A1, “Activities of an active principle obtained from powdered alfalfa seeds (Medicago sativa), active principle used and process of obtaining the same” (SOCIETE INDUSTRIELLE LIMOUSINE D'APPLICATION BIOLOGIQUE …, priority 2004, published 2008):
# Columns and labels:
# cutaneous micro-relief = assay: Smoothing effect on cutaneous micro-relief of forearms in volunteers (profilometer); assay type: in vivo, human; conditions: active principle 4% or retinol 0.15% in emulsion, bi-daily for 28 days, against placebo
# Description: The active principle is formulated at 4% in emulsion, and retinol is formulated at 0.15% in an emulsion. The 2 formulations are tested on 2 groups of volunteers, against a placebo. The tests are carried out and the influence of the active principle or of retinol on the appearance of cutaneous micro-relief, after bi-daily application for 28 days. The analyses are carried out by observation of prints of the cutaneous micro-relief with the help of a profilometer associated with an image analyzer. The zones in question in this study are cutaneous zones of the forearms. The observed parameter is the mean rugosity of the micro-contour.
# skin = assay: Irritating skin reactions in volunteers of the in vivo studies; set-up: species or system human; conditions: topical emulsion (active principle 4%, retinol 0.15%), bi-daily for 28 days
# Description: The active principle is formulated at 4% in an emulsion. Retinol is formulated at 0.15% in an emulsion.
# The 2 formulae are tests and 2 groups of volunteers, against a placebo.
# The tests have shown the influence of the active principle or of retinol on the appearance of crows-feet wrinkles, after bi-daily application for 28 days.
# The active principle is formulated at 4% in emulsion, and retinol is formulated at 0.15% in an emulsion.
# The 2 formulations are tested on 2 groups of volunteers, against a placebo.
# The tests are carried out and the influence of the active principle or of retinol on the appearance of cutaneous micro-relief, after bi-daily application for 28 days.
# collagen I = assay: Synthesis of collagen I in human fibroblasts by ELISA dosage; assay type: cell-based; conditions: normal human fibroblasts; retinol at 10^-5 M
# Description: The study is conducted on human fibroblasts by ELISA dosage. The fibroblasts are incubated in the presence or not of the active principle, of the fractions or of retinol at 10^−5 M. The results are shown in FIG. 2. Tests have been carried out on normal human fibroblasts by ELISA dosage. The fibroblasts were treated with retinol at 10^−5 M or with the active principle at 0.1%, 0.25% and 0.5%.
compound,measurement,setting,value
CC1=C(/C=C/C(C)=C/C=C/C(C)=C/CO)C(C)(C)CCC1 [retinol],smoothing effect on the micro-contour (mean rugosity) relative to the comparison,cutaneous micro-relief,8%
same,irritating skin reactions,skin,reactions of the irritating skin type
same,increase of the synthesis of collagen I,collagen I,171%
